Reference: US20260193180A1, “AUTOPHAGY INDUCING COMPOUNDS AND USES THEREOF” (SAMSARA THERAPEUTICS INC., priority 2022, published 2026)
Where a name gives a salt, the structure may show the parent alone.

Tested on: Human osteosarcoma U2OS cells
Test: Acidic vesicle formation (lysosome/autolysosome staining, LysoView 633 / LysoTracker Deep Red), stimulation of autophagy
Type: cell-based
Settings: 24 hours; for activation at 10 µM: read-out: increase in acidic vesicle formation over the DMSO-treated control; for activation at 0.8 µM: read-out: Activity (percentage increase in acidic vesicle formation over the DMSO-treated control)
Experimental: Lysosomes play a fundamental role in the autophagic pathway by fusing with autophagosomes and creating ‘autolysosomes’ in order to digest their contents. Stimulation of lysosome and autolysosome formation by a compound is indicative of a stimulation of autophagy. The ability of compounds to stimulate lysosome and autolysosome formation, and thus autophagy, in live cells was assessed via fluorescent microscopy using various fluorescent stains for labelling and tracking acidic organelles (including lysosomes and autolysosomes) such as: LysoView™ 650 (70059 and 70059-T, Biotium), LysoView™633 (70058 and 70058-T, Biotium) and LysoTracker™ Deep Red (L12492, ThermoFisher Scientific). The cellular phenotype was quantitatively assessed for the induction of acidic vesicle formation and compared to a non-treated control, thus providing a measure of the ability of the compound under investigation to stimulate autophagy.
Representative procedure using LysoView™633 dye or LysoTracker™ Deep Red dye: Human osteosarcoma U2OS cells (40,000 cells/well) were seeded in a 24 well glass bottom plate (Sensoplate, Greiner Bio-One) and were incubated overnight in a humidified atmosphere at 37° C. and 5% CO2. Cells were grown in DMEM (Gibco) supplemented with 10% Fetal Bovine Serum (FBS) and 100 units/ml penicillin and 100 μg/ml streptomycin (Invitrogen). After the attachment period, cells were treated with different compounds of interest (at various concentrations in DMSO) or DMSO (non-treated control) in cell culture medium and were incubated for 24 hours. Compound-containing medium was removed and cells were incubated with pre-warmed cell culture medium containing 1× LysoView™ 633 (70058 and 70058-T, Biotium) or 50 nM LysoTracker™ Deep Red (L12492, ThermoFisher Scientific) for 45 minutes at 37° C. Finally, cell nuclei were stained for 10 minutes using Hoechst 33342 (1 μg/mL) and then the medium was replaced with fresh medium. The 24 well plate was then fitted into a heated stage on the microscope and cells maintained at 37° C. Images were captured using appropriate filter set for Cy5 and DAPI detection with the EVOS M7000 Microscope (ThermoFisher Scientific). The cellular phenotype was visually assessed for the induction of acidic vesicle formation relative to the non-treated control; multiple images were acquired and analysed using ImageJ or Cell Profiler.

With `CCOc1ccc(C(F)(F)F)cc1CN1CCN[C@@H](C)C1` [Compound 1, (S)-1-(2-ethoxy-5-(trifluoromethyl)benzyl)-3-methylpiperazine hydrochloride] the activation at 10 µM was ≥ 25%.
In the case of `CCOc1ccc(C(F)(F)F)cc1CN1CC[C@@H](CN)C1` [Compound 2, (S)-(1-(2-ethoxy-5-(trifluoromethyl)benzyl)pyrrolidin-3-yl)methanamine hydrochloride], the activation at 0.8 µM is reported as 10 to 30% and the activation at 10 µM is reported as ≥ 25%.
In the case of `CCCOc1ccc(Cl)cc1CN1CC[C@@H](CN)C1` [Compound 3, (S)-(1-(5-chloro-2-propoxybenzyl)pyrrolidin-3-yl)methanamine hydrochloride], the activation at 0.8 µM is reported as 30 to 50% and the activation at 10 µM is reported as ≥ 25%.
With `NC[C@@H]1CCN(Cc2cc(Cl)ccc2OCC2CC2)C1` [Compound 4, (S)-(1-(5-chloro-2-(cyclopropylmethoxy)benzyl)pyrrolidin-3-yl)methanamine hydrochloride] the activation at 0.8 µM was 30 to 50% and the activation at 10 µM was ≥ 25%.
With `CCOc1cc(Cl)c(Cl)cc1CN1CC[C@@H](CN)C1` [Compound 5, (S)-(1-(4,5-dichloro-2-ethoxybenzyl)pyrrolidin-3-yl)methanamine hydrochloride] the activation at 0.8 µM was 30 to 50% and the activation at 10 µM was ≥ 25%.
With `NC[C@@H]1CCN(Cc2cc(Cl)c(Cl)cc2OCC2CC2)C1` [Compound 6, (S)-(1-(4,5-dichloro-2-(cyclopropylmethoxy)benzyl)pyrrolidin-3-yl)methanamine hydrochloride] the activation at 0.8 µM was 50 to 100% and the activation at 10 µM was ≥ 25%.
With `CCOc1ccc(Cl)cc1CN1CCC[C@@H](CN)C1` [Compound 7, (S)-(1-(5-chloro-2-ethoxybenzyl)piperidin-3-yl)methanamine hydrochloride] the activation at 0.8 µM was 30 to 50% and the activation at 10 µM was ≥ 25%.
For `NC[C@@H]1CCCN(Cc2cc(Cl)ccc2OCC2CC2)C1` [Compound 8, (S)-(1-(5-chloro-2-(cyclopropylmethoxy)benzyl)piperidin-3-yl)methanamine hydrochloride], the activation at 0.8 µM was 10 to 30% and the activation at 10 µM was ≥ 25%.
In the case of `CCOc1ccc(Cl)cc1CN1CCN(CC)CC1` [Compound 10, 1-(5-chloro-2-ethoxybenzyl)-4-ethylpiperazine], the activation at 0.8 µM is reported as 10 to 30% and the activation at 10 µM is reported as ≥ 25%.
In the case of `CCOc1ccc(Cl)cc1CN1CCC(N(C)C)CC1` [Compound 11, 1-(5-chloro-2-ethoxybenzyl)-N,N-dimethylpiperidin-4-amine], the activation at 0.8 µM is reported as 10 to 30% and the activation at 10 µM is reported as ≥ 25%.
`CCOc1ccc(Cl)cc1CN1CCC[C@H]1CN` [Compound 13, (S)-(1-(5-chloro-2-ethoxybenzyl)pyrrolidin-2-yl)methanamine hydrochloride] was tested, and the activation at 10 µM was ≥ 25%.
In the case of `CCOc1ccc(Cl)cc1CN1CCC[C@@H]1CN` [Compound 14, (R)-(1-(5-chloro-2-ethoxybenzyl)pyrrolidin-2-yl)methanamine hydrochloride], the activation at 10 µM is reported as ≥ 25%.
`CCOc1ccc(Cl)cc1CN1CCC[C@@H](N)C1` [Compound 15, (R)-1-(5-chloro-2-ethoxybenzyl)piperidin-3-amine hydrochloride] was tested, and the activation at 0.8 µM was 10 to 30% and the activation at 10 µM was ≥ 25%.
For `CCOc1ccc(Cl)cc1CN1CCC[C@H](N)C1` [Compound 16, (S)-1-(5-chloro-2-ethoxybenzyl)piperidin-3-amine hydrochloride], the activation at 10 µM was ≥ 25%.
In the case of `CCOc1ccc(Cl)cc1CN1CC(CN)C1` [Compound 17, (1-(5-chloro-2-ethoxybenzyl)azetidin-3-yl)methanamine hydrochloride], the activation at 0.8 µM is reported as 50 to 100% and the activation at 10 µM is reported as ≥ 25%.
For `CCOc1ccc(Cl)cc1CN1CCN(C(C)C)CC1` [Compound 18, 1-(5-chloro-2-ethoxybenzyl)-4-isopropylpiperazine], the activation at 0.8 µM was 10 to 30% and the activation at 10 µM was ≥ 25%.
`CCOc1ccc(Cl)cc1CCN1CCC[C@H](N)C1` [Compound 19, (S)-1-(5-chloro-2-ethoxyphenethyl)piperidin-3-amine hydrochloride] was tested, and the activation at 10 µM was ≥ 25%.
With `NC[C@@H]1CCN(CCc2ccc(OCC3CC3)c(Cl)c2)C1` [Compound 20, (S)-(1-(3-chloro-4-(cyclopropylmethoxy)phenethyl)pyrrolidin-3-yl)methanamine hydrochloride] the activation at 10 µM was ≥ 25%.
For `CCOc1cc(F)c(F)cc1CN1CC[C@H](CN)C1` [Compound 21, (R)-(1-(2-ethoxy-4,5-difluorobenzyl)pyrrolidin-3-yl)methanamine hydrochloride], the activation at 10 µM was ≥ 25%.
In the case of `CCOc1cc(F)c(F)cc1CN1CC[C@@H](CN)C1` [Compound 22, (S)-(1-(2-ethoxy-4,5-difluorobenzyl)pyrrolidin-3-yl)methanamine hydrochloride], the activation at 10 µM is reported as ≥ 25%.
`NC[C@H]1CCN(Cc2cc(Cl)ccc2OCCO)C1` [Compound 24, (R)-2-(2-((3-(aminomethyl)pyrrolidin-1-yl)methyl)-4-chlorophenoxy)ethan-1-ol hydrochloride] was tested, and the activation at 10 µM was ≥ 25%.
In the case of `NC[C@@H]1CCN(Cc2cc(Cl)ccc2OCCO)C1` [Compound 25, (S)-2-(2-((3-(aminomethyl)pyrrolidin-1-yl)methyl)-4-chlorophenoxy)ethan-1-ol hydrochloride], the activation at 0.8 µM is reported as 30 to 50% and the activation at 10 µM is reported as ≥ 25%.
For `CCCCOc1ccc(Cl)cc1CN1CC[C@H](CN)C1` [Compound 26, (R)-(1-(2-butoxy-5-chlorobenzyl)pyrrolidin-3-yl)methanamine hydrochloride], the activation at 0.8 µM was > 100% and the activation at 10 µM was ≥ 25%.
`CCCCOc1ccc(Cl)cc1CN1CC[C@@H](CN)C1` [Compound 27, (S)-(1-(2-butoxy-5-chlorobenzyl)pyrrolidin-3-yl)methanamine hydrochloride] was tested, and the activation at 0.8 µM was > 100% and the activation at 10 µM was ≥ 25%.
With `CCOc1ccc(Cl)cc1CN1CCO[C@@H](CN)C1` [Compound 28, (S)-(4-(5-chloro-2-ethoxybenzyl)morpholin-2-yl)methanamine hydrochloride] the activation at 0.8 µM was 10 to 30% and the activation at 10 µM was ≥ 25%.
In the case of `CCOc1ccc(Cl)cc1CN1CCO[C@H](CN)C1` [Compound 29, (R)-(4-(5-chloro-2-ethoxybenzyl)morpholin-2-yl)methanamine hydrochloride], the activation at 0.8 µM is reported as 50 to 100% and the activation at 10 µM is reported as ≥ 25%.
`CCOc1cc(Cl)cc(CN2CC[C@@H](CN)C2)c1` [Compound 31, (S)-(1-(3-chloro-5-ethoxybenzyl)pyrrolidin-3-yl)methanamine hydrochloride] was tested, and the activation at 0.8 µM was > 100% and the activation at 10 µM was ≥ 25%.
For `CCCOc1ccc(OC(F)(F)F)cc1CN1CCN[C@@H](C)C1` [Compound 32, (S)-3-methyl-1-(2-propoxy-5-(trifluoromethoxy)benzyl) piperazine hydrochloride], the activation at 0.8 µM was 50 to 100% and the activation at 10 µM was ≥ 25%.
With `NC[C@@H]1CCN(CCc2cc(Cl)cc3c2OCO3)C1` [Compound 33, (S)-(1-(2-(6-chlorobenzo[d][1,3]dioxol-4-yl)ethyl)pyrrolidin-3-yl)methanamine hydrochloride] the activation at 10 µM was ≥ 25%.
`CCOc1ccc(Cl)c(Cl)c1CCN1CC[C@@H](CN)C1` [Compound 34, (S)-(1-(2,3-dichloro-6-ethoxyphenethyl)pyrrolidin-3-yl)methanamine hydrochloride] was tested, and the activation at 10 µM was ≥ 25%.
With `CCOc1cc(Cl)c(Cl)cc1CCN1CC[C@@H](CN)C1` [Compound 35, (S)-(1-(4,5-dichloro-2-ethoxyphenethyl)pyrrolidin-3-yl)methanamine hydrochloride] the activation at 10 µM was ≥ 25%.
